Test results: patent US8748496B2, “Methods of treatment of hyperuricemia and associated disease states” (Elan Pharmaceuticals, Inc., priority 2008, dated 2014)

System: uric acid levels
Experiment: Multiple ascending dose study every twelve hours for seven days, uric acid in healthy elderly subjects
Assay type: in vivo, human
Conditions: for uric acid, Mean: N=6
Description: A single-center, randomized, placebo-controlled, multiple ascending dose study evaluating a scyllo-inositol formulation was conducted in healthy elderly subjects. Approximately 32 healthy subjects (men and women) participated in […] consisting of 8 subjects each (i.e., 6 on active drug and 2 on placebo). Subjects received drug twice daily (BID) (every 12 hours) for 7 days. The dosage levels of the scyllo-inositol were 200 mg BID (400 mg/d total), 700 mg BID (1400 mg/d total), 1500 mg BID (3000 mg/d total) and 3000 mg BID (6000 mg/d total) given every 12 hours. Blood samples were collected from each subject on days 0, 4, 7, and 12.
Scyllo-inositol 200 and 500 mg capsules were bovine spongiform encephalopathy (BSE)/transmissible spongiform encephalopathy (TSE)-free soft gelatin, white, opaque capsules and no excipient was used in the finished product. Capsules were supplied in 60-mL, oblong, white pharmaceutical high density polyethylene (HDPE) bottles with white caps. Each 60-mL bottle contained 30 capsules of 200 or 500 mg scyllo-inositol.
The mean change from baseline to day 7 versus placebo was used to determine statistical significance. […] The ANCOVA looked at the change of uric acid levels in controls from starting levels of uric acid; the software used was SAS 9.1.3. […] The point estimate of 0.85 is a population parameter in dosed subjects.

[1] = 1500 mg BID oral 7 days group, Baseline (Day 0)
[2] = 1500 mg BID oral 7 days, Day 12
[3] = 3000 mg BID oral 7 days group, Baseline (Day 0)
[4] = 3000 mg BID oral 7 days, Day 12

O[C@H]1[C@H](O)[C@@H](O)[C@H](O)[C@@H](O)[C@@H]1O [scyllo-inositol, 1,2,3,4,5,6-cyclohexanehexyl, (1alpha,2beta,3alpha,4beta,5alpha,6beta)]
uric acid, Min [1]: 220 micromole per liter | uric acid, Mean [1]: 303.3 micromole per liter | uric acid, Max (1500 mg BID oral 7 days, Day 4): 291 micromole per liter | uric acid, Max Change from Baseline (1500 mg BID oral 7 days, Day 4): 12 micromole per liter | uric acid, Mean Change from Baseline (1500 mg BID oral 7 days, Day 4): −70.4 micromole per liter | uric acid, Median (1500 mg BID oral 7 days, Day 4): 237.9 micromole per liter | uric acid, Median Change from Baseline (1500 mg BID oral 7 days, Day 4): −71.4 micromole per liter | uric acid, Min (1500 mg BID oral 7 days, Day 4): 155 micromole per liter | uric acid, Min Change from Baseline (1500 mg BID oral 7 days, Day 4): −143 micromole per liter | uric acid, Mean (1500 mg BID oral 7 days, Day 4): 233.0 micromole per liter | uric acid, Max (1500 mg BID oral 7 days, Day 7): 256 micromole per liter | uric acid, Max Change from Baseline (1500 mg BID oral 7 days, Day 7): −24 micromole per liter | uric acid, Mean Change from Baseline (1500 mg BID oral 7 days, Day 7): −88.2 micromole per liter | uric acid, Median (1500 mg BID oral 7 days, Day 7): 229.0 micromole per liter | uric acid, Median Change from Baseline (1500 mg BID oral 7 days, Day 7): −77.3 micromole per liter | uric acid, Min (1500 mg BID oral 7 days, Day 7): 155 micromole per liter | uric acid, Min Change from Baseline (1500 mg BID oral 7 days, Day 7): −196 micromole per liter | uric acid, Mean (1500 mg BID oral 7 days, Day 7): 215.1 micromole per liter | uric acid, Max [2]: 399 micromole per liter | uric acid, Max Change from Baseline [2]: 18 micromole per liter | uric acid, Mean Change from Baseline [2]: −27.8 micromole per liter | uric acid, Median [2]: 279.6 micromole per liter | uric acid, Median Change from Baseline [2]: −29.7 micromole per liter | uric acid, Min [2]: 196 micromole per liter | uric acid, Min Change from Baseline [2]: −65 micromole per liter | uric acid, Mean [2]: 275.6 micromole per liter | uric acid, Max [3]: 363 micromole per liter | uric acid, Median [3]: 300.4 micromole per liter | uric acid, Min [3]: 226 micromole per liter | uric acid, Mean [3]: 299.4 micromole per liter | uric acid, Max (3000 mg BID oral 7 days, Day 4): 262 micromole per liter | uric acid, Max Change from Baseline (3000 mg BID oral 7 days, Day 4): −59 micromole per liter | uric acid, Mean Change from Baseline (3000 mg BID oral 7 days, Day 4): −83.3 micromole per liter | uric acid, Median (3000 mg BID oral 7 days, Day 4): 226.0 micromole per liter | uric acid, Median Change from Baseline (3000 mg BID oral 7 days, Day 4): −83.3 micromole per liter | uric acid, Min (3000 mg BID oral 7 days, Day 4): 161 micromole per liter | uric acid, Min Change from Baseline (3000 mg BID oral 7 days, Day 4): −107 micromole per liter | uric acid, Mean (3000 mg BID oral 7 days, Day 4): 216.1 micromole per liter | uric acid, Max (3000 mg BID oral 7 days, Day 7): 268 micromole per liter | uric acid, Max Change from Baseline (3000 mg BID oral 7 days, Day 7): −71 micromole per liter | uric acid, Mean Change from Baseline (3000 mg BID oral 7 days, Day 7): −85.3 micromole per liter | uric acid, Median (3000 mg BID oral 7 days, Day 7): 214.1 micromole per liter | uric acid, Median Change from Baseline (3000 mg BID oral 7 days, Day 7): −74.4 micromole per liter | uric acid, Min (3000 mg BID oral 7 days, Day 7): 149 micromole per liter | uric acid, Min Change from Baseline (3000 mg BID oral 7 days, Day 7): −131 micromole per liter | uric acid, Mean (3000 mg BID oral 7 days, Day 7): 214.1 micromole per liter | uric acid, Max [4]: 345 micromole per liter | uric acid, Max Change from Baseline [4]: 18 micromole per liter | uric acid, Mean Change from Baseline [4]: −29.7 micromole per liter | uric acid, Median [4]: 270.6 micromole per liter | uric acid, Median Change from Baseline [4]: −23.8 micromole per liter | uric acid, Min [4]: 208 micromole per liter | uric acid, Min Change from Baseline [4]: −83 micromole per liter | uric acid, Mean [4]: 269.6 micromole per liter | decreases from baseline in uric acid, dose-response (200-3000 mg BID oral 7 days, Day 7): a dose-response effect was not as apparent | mean uric acid levels, relation to dose (200-3000 mg BID oral 7 days, Days 4 and 7, Day 12): dose-related decrease in mean uric acid levels was observed at Days 4 and 7, which partially resolved by Day 12 | mean difference (PLC-TRT) in change from baseline to day 7, point estimate (scyllo-inositol treated versus placebo, Day 7, ANCOVA): 0.85
